“Also recorded” adds a separate entry of the source. Bridge positions count the residues as written; N and C are the ends. Ends that are not written are not given here. A value given as a limit tells only on which side of the number the result lay.

Data set [1] has as its target T1, Recombinant human IL-23R-Fc (Homo sapiens, UniProt Q5VWK5).
T1 construct: has the protein portion between the 24 amino acid residue to 353 amino acid residue; purchased R&D Systems 1400-IR-050
T1 sequence (Q5VWK5 24-353): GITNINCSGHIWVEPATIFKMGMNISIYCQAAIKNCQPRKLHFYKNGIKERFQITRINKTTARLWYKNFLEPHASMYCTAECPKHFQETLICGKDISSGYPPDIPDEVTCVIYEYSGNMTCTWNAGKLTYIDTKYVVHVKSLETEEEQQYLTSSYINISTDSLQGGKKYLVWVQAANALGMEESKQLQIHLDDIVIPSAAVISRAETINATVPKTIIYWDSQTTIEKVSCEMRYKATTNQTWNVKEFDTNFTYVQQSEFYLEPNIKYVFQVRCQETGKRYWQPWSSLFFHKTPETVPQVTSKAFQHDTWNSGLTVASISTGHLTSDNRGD
As to the kind of experiment: Competitive ELISA, IL-23 binding to IL-23R. Particulars: for inhibition of IL-23 binding to its receptor by modified polypeptides, Competitive ELISA: procedure of Example 6, compared with parent polypeptide; for IC50: human IL-23 / IL-23R-Fc, read-out: IC50, Competitive ELISA. The method, then:
The novel polypeptides were tested for their ability to inhibit IL-23 using a Competitive ELISA. In such an assay, IL-23R/Fc fusion protein was immobilized on a solid support. In this instance, the solid support was a 96-well plate, but the support may be any support that is typically used for an ELISA. The novel polypeptide and IL-23 were allowed to compete for binding to the immobilized IL-23R/Fc fusion protein. IL-23 that bound to IL-23R-Fc was detected using biotinylated anti-p40 antibody. The bound anti-p40 antibody was detected using streptavidin-horseradish peroxidase (HRP) and a tetramethylbenzidine (TMB) substrate was added to measure peroxidase activity. The color was measured at optical density (OD) 450nm. The color intensity was directly proportional to the amount of the bound IL-23 protein. […] (See, FIG. 16.)
(§1) FIG. 12 is a schematic depiction of the Competitive ELISA. Recombinant human IL-23R-Fc (2 μg/ml) was coated onto microtiter plates as a capture reagent. IL-23 and polypeptides were added to compete for binding to the immobilized IL-23R-Fc. IL-23 that bound to IL-23R-Fc was detected using biotinylated anti-p40 antibody (1:250). The bound anti-p40 antibody was detected using streptavidin-horseradish peroxidase (HRP) (1:500) and 100 μl/well of a tetramethylbenzidine (TMB) substrate was added to measure peroxidase activity. The color was measured at optical density (OD) 450nm. (See, FIG. 12). The color intensity was directly proportional to the amount of the bound IL-23 protein.
as §1, with “Recombinant” for “FIG. 12 is a schematic depiction of the Competitive ELISA. Recombinant”, “IL-23R-Fc. 50 μg human IL-23 (Cat. No. HZ-1048) (Humanzyme, Chicago, Ill.) in the presence or absence of 100 μM peptides was added to the well and incubated at 4° C. overnight.” for “IL-23R-Fc.”, “450nm.” for “450nm. (See, FIG. 12).”

For data set [2], the target named is T2, IL-23R pathway in STAT3-Luc reporter DB cells (Homo sapiens, UniProt Q5VWK5). As to the kind of experiment: Cell-based STAT3-Luc reporter DB cell assay (DB-Luc), inhibition of IL-23. The settings on record: cyclic vs linear peptides. As for the experimental part: The Cignal STAT3 reporter (SA Biosciences, CCS-9028L), designed to measure the transcriptional activity of STAT3 homodimers, was transiently transfected into the DB cells. The stably transfected STAT3-Luc reporter clone was selected using 200 ng/ml of Hygromycin B.
The stably transfected STAT3-Luc reporter DB cells (0.5×10^6) were cultured in 100 μl of RPMI+10% FBS. IL-23 was added to the cells and incubated at 37° C. for 4 hours. Luciferase activity was measured using Dual-Glo luciferase assay system (Promega).
The isolated cyclic polypeptide no. 23.15-Fc fusion protein and cyclic polypeptide no. 23.19 were used in a cell-based assay to measure the IC50 values. The stably transfected STAT3-Luc reporter DB cells (0.5×10^6) were cultured in 100 μl of RPMI+10% FBS. The cells were pre-incubated with different concentration of isolated cyclic polypeptide no. 23.15-Fc fusion protein or polypeptide no. 23.19 for 30 minutes at 37° C. 50 ng/ml of IL-23 was added to the cells and incubated at 37° C. for an additional 4 hours. Luciferase activity was measured using Dual-Glo luciferase assay system (Promega). The IC50 values of isolated cyclic polypeptide no. 23.15-Fc fusion protein and cyclic polypeptide no. 23.19 are 2.5 μM and 2.5 μM respectively.
The isolated peptide no. 7 (SEQ ID NO: 156) and peptide no. 23.19 (SEQ ID NO: 130) (it is a cyclic version of the polypeptide no. 23.15) were used in a cell based assay to compare their inhibitory activity. The stably transfected STAT3-Luc reporter DB cells (0.5×10^6) were cultured in 100 μl of RPMI+10% FBS. The cells were pre-incubated with two different concentrations (10 μM and 2 μM) of isolated peptides for 30 minutes at 37° C. 50 ng/ml of IL-23 was added to the cells and incubated at 37° C. for an additional 4 hours. Luciferase activity was measured using Dual-Glo luciferase assay system (Promega). The inhibitory activity of isolated peptide no. 7 (SEQ ID NO: 156) is better than that of peptide no. 23.19 (SEQ ID NO: 130) (a cyclic version of polypeptide no. 23.15 (SEQ ID NO: 126) (See, FIG. 62).
DB cells express IL-23R on the cell surface. In addition, IL-23 stimulated the DB cells through the activation of STAT3 by phosphorylation (p-STAT3) (Example 7 (Figures. 14 and 15)). Based on these observations, DB cells were used to develop a cell-based assay to measure the inhibitory activity of peptide and peptide-Fc fusion protein in the IL-23R pathway. […]
The Cignal STAT3 reporter (SA Biosciences, CCS-9028L), which is designed to measure the transcriptional activity of STAT3 homodimers, was transiently transfected into the DB cells. The stably transfected STAT3-Luc reporter clone was selected using 200 ng/ml of Hygromycin B. The activity of IL-23R pathway can be measured by the transcriptional activity of STAT3 homodimers. […]

Data set [3] in a line: Solubility of synthetic polypeptides (precipitate in assay). Type of data set: physicochemical. The settings on record: under Competitive ELISA conditions. On the technique in general: In an ELISA, binding on a coated surface is turned into a signal by an enzyme label.
For data set [4], the target named is T2, IL-23R pathway in STAT3-Luc reporter DB cells. As to the kind of experiment: STAT3-Luc reporter DB cells stimulated with IL-23 cytokines. Type of data set: cell-based. The method, then:
In Example 29 (above), we detailed the development of stably transfected STAT3-Luc reporter clone. […] The stably transfected STAT3-Luc reporter DB cells (0.5×10^6 cells) were cultured in 100 μl of RPMI+10% FBS. Recombinant IL-23 (Humanzyme) or isolated IL-23 (WT or W5) was added to the cells and incubated at 37° C. for 4 hours. Luciferase activity was measured using Dual-Glo luciferase assay system (Promega).
The reporter luciferase activity increased by approximately 10 folds. Isolated WT IL-23 cytokine at different concentrations (50,000, 5,000, 500 and 50 ng/ml) was added to stimulate these stable cells. […] At the concentration of 50 ng/ml, the isolated WT IL-23 cytokine stimulates the IL-23R pathway as good as the recombinant IL-23 cytokine from Humazyme.

In data set [5] the test system is IL-23R deletion proteins. Nature of the data set: Immunoprecipitation with FLAG-tagged IL-23R deletion proteins. Type of data set: binding. The settings on record: 200 ng, anti-FLAG M2 immunoprecipitation, Western blot. The method, then: (§2) In this study, we examined which regions of IL-23R proteins were required for the binding to IL-23 and polypeptide no. 23.15-fc fusion protein. To do so, we generated a series of IL-23R deletion proteins as illustrated in the FIG. 48.
(§3) Culture media from 293T cells transfected with different FLAG-tagged IL-23R deletion constructs were incubated with 200 ng of either IL-23 or polypeptide no. 23.15-fc fusion protein, then immunoprecipitated with anti-FLAG M2 affinity gel. The immunoprecipitate was subjected to Western blotting and polypeptide no. 23.15-Fc fusion protein or IL-23 was visualized with either anti-mouse IgG or anti-hIL-12/23p40 respectively. IL-23 or polypeptide no. […] 23.15-fc fusion protein (FIG. 48).

The target of data set [6] is T3, IL-23R deletion proteins (Homo sapiens, UniProt Q5VWK5).
T3 construct: made in house; host or cells: 293T cells (culture media)
T3 sequence (Q5VWK5 24-200): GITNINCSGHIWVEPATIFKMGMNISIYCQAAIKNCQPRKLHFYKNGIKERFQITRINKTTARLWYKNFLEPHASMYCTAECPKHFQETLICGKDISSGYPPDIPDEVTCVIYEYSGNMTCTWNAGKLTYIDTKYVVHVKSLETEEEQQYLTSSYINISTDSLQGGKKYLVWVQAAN
Described as above. Type of data set: binding. Particulars: 200 ng, anti-FLAG M2 immunoprecipitation, Western blot. The method, then: as §2, §3
(A western blot detects proteins with antibodies after separation by electrophoresis.)

Consider “7 CC (CMKTWVDYWLETQC; disulfide 1-14 (inferred); listed as Homo sapiens)”, for which, in data set [1], the “inhibition of IL-23 binding to its receptor by modified polypeptides, Competitive ELISA” value (from here on “inhibition of IL-23 binding”) is on record as “did not abrogate the polypeptides' ability”.

In the case of “7HT AA (AMKTWVDYWLETQA; head-to-tail cyclic; listed as Homo sapiens)”, the “inhibitory activity in cell-based DB-Luc assay” value in data set [2] was “did not eliminate the inhibitory activity”. The “inhibition of IL-23 binding” value in data set [1] was “did not abrogate the polypeptides' ability”.

Regarding `CSCC[C@H](NC(=O)[C@H](C)N)C(=O)N[C@H](C(=O)N[C@@H](Cc1c[nH]c2ccccc12)C(=O)N[C@@H](CCC(N)=O)C(=O)N[C@@H](CC(=O)O)C(=O)N[C@@H](Cc1ccc(O)cc1)C(=O)N[C@@H](Cc1c[nH]c2ccccc12)C(=O)N[C@@H](CC(C)C)C(=O)N[C@@H](Cc1ccc(O)cc1)C(=O)NCC(=O)N[C@@H](CCCNC(=N)N)C(=O)O)[C@@H](C)O` [23.15], the “inhibition of IL-23 binding” value in data set [1] is reported as “at least as effective”.

Take AMTWEDWWLYGR [compound 23]: the IC50 in data set [1] is under 1.56 µM.

As to ASWVQYWVQ [1.4], in data set [3], the solubility result is “formed a precipitate”.

Consider DDWMQYWRQQVR [compound 27], for which the 50% inhibitory concentration (IC50) in data set [1] is about 1.56 µM.

Regarding “IL-23: heterodimeric cytokine of p19 and p40 subunits; recombinant from Humanzyme”, the “increase of reporter luciferase activity” value in data set [4] (50 ng/ml) is “approximately 10 folds”. In addition, in the data set on IL-23R deletion proteins [5], the “binding to IL-23R deletion proteins 1-348, 1-318 or 1-250” value is recorded as “detected in the precipitate”. Also, the “binding to IL-23R deletion protein 1-200” value with IL-23R deletion proteins [6] is recorded as “failed to bind”.

As for NWATYWQLRHQT [compound 9], the “inhibitory activity in Competitive ELISA in relation to polypeptide no. 1” value in data set [1] (50 μM polypeptide, 30 ng/ml IL-23) was “significant and better inhibitory activity compared to peptide number 1; also recorded: inhibited IL-23 binding more than polypeptide no. 1”. For the same compound, the 50% inhibitory concentration (IC50) in data set [1] is about 3 µM.

For the compound SGASWVQFWVQR [1.17], the solubility result in data set [3] is recorded as “formed a precipitate”.

SGASWVQYWVQR [Polypeptide no. 1]: in data set [1], the half-inhibitory concentration (IC50) was in the range of 6.25 to 12.5 µM.

As for SGASWVQYWWWR [1.21], in data set [3], the solubility result is “insoluble”.

As to SGAWWVQYWVQR [1.18], the solubility entry in data set [3] is recorded as “insoluble”.

Consider SGWWWVQYWVQR [1.20], for which the solubility entry in data set [3] is reported as “insoluble”.

In the case of “WT: IL-23 cytokine with wild type p19 subunit, expressed in 293T cells”, the “stimulation of STAT3 reporter activity” value in data set [4] (50,000, 5,000, 500 and 50 ng/ml) is reported as “stimulates the STAT3 activity in a dose-dependent manner”.

One may read the IC50 as the concentration at which inhibition is half-maximal.

Values taken from US9605027B2, “Polypeptides that bound to IL-23 receptor and inhibit binding of IL-23 and cell signaling thereof” (Medical Diagnostic Laboratories, LLC, priority 2011, dated 2017).
